Here are results for six molecules from patent US10730887B2, “Compound containing tricyclic heteroaryl group” (Hangzhou Innogate Pharma Co., Ltd., priority 2016, dated 2020).

Structures are written as SMILES.

What all share (assay type): biochemical
Assay [1] addresses T1, Axl (Homo sapiens, UniProt P30530).
T1 sequence (P30530 26-894): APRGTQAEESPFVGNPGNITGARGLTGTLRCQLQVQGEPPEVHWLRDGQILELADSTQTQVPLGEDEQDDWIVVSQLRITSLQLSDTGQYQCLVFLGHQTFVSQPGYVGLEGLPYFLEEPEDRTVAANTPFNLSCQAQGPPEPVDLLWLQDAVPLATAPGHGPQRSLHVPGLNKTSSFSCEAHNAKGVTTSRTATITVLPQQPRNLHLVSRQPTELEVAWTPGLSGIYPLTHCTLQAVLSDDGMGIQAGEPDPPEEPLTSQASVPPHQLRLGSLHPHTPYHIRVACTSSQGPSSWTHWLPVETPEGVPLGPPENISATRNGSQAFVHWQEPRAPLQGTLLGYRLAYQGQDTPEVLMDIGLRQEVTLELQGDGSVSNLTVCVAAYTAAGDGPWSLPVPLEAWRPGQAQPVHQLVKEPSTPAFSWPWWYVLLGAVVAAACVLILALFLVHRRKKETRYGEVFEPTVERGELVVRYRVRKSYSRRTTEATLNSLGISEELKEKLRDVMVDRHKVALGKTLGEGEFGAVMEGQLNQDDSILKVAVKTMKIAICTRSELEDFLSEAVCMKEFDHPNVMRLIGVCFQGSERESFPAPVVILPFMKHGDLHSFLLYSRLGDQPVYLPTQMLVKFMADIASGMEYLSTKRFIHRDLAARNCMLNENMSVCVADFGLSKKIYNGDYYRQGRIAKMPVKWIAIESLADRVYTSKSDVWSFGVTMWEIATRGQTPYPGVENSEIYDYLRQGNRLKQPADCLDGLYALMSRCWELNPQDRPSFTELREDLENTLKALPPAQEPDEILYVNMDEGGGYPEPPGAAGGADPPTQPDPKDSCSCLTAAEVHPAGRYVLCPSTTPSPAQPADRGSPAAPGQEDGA
Nature of the assay: Axl kinase activity inhibition, Caliper mobility shift assay. The method, then: Axl protein kinase activity was determined using the Caliper mobility shift assay. The compound was dissolved in DMSO and diluted with kinase buffer (50 mM HEPES, pH 7.5, 0.0015% Brij-35, 2 mM DTT), and 5 μL of 5 times the final concentration of the compound (10%) was added to the 384-well plate. DMSO). After adding 10 μL of a 2.5-fold Axl enzyme solution, incubate for 10 minutes at room temperature, and then add 10 μL of a 2.5-fold substrate (FAM-labeled polypeptide and ATP) solution. After incubation at 28° C. for 60 minutes, the reaction was stopped by the addition of […] stop solution (100 mM HEPES, 0.015% Brij-35, 0.2% Coating Reagent #3, 50 mM EDTA, pH 7.5). Conversion rate was read on a Caliper EZ Reader II (Caliper Life Sciences). The conversion rate was converted into inhibition rate (% inhibition rate=(max−conversion rate)/(max−min)*100). Where max is the conversion of the DMSO control and min is the conversion of the enzyme-free control. Curves were plotted with compound concentration and inhibition rate on the horizontal and vertical coordinates, and the curve was fitted using XLFit excel add-in version 4.3.1 software and IC50 was calculated.

The target in assay [2] is T2, FLT3 (Homo sapiens, UniProt P36888).
T2 sequence (P36888 27-993): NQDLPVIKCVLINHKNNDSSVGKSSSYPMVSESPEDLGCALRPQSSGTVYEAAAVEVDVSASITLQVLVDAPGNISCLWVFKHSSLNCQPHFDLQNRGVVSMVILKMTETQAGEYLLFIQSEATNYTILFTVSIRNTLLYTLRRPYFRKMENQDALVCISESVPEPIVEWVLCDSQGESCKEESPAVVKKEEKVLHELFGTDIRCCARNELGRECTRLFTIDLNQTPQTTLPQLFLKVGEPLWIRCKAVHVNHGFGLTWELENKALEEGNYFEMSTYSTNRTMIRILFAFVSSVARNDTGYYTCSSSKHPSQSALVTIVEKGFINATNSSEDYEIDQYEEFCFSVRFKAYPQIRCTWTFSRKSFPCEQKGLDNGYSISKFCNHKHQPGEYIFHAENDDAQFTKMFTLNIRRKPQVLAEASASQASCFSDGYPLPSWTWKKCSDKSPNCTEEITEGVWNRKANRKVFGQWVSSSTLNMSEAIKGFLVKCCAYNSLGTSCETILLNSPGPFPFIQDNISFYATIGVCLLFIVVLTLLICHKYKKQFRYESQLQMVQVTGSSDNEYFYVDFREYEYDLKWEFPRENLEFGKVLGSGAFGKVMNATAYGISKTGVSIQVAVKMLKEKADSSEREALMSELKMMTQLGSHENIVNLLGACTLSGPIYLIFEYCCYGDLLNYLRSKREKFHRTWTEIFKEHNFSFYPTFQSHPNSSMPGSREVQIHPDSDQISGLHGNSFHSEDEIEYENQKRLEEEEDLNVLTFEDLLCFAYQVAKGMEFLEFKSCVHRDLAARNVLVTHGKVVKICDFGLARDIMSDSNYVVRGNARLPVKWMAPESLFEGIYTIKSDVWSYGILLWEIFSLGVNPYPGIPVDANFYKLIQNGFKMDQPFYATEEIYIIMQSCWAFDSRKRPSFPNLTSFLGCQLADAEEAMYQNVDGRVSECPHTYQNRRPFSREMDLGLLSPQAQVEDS
Nature of the assay: FLT3 kinase activity inhibition, Caliper mobility shift assay. As to the method: FLT3 protein kinase activity was measured using the Caliper mobility shift assay. The compound was dissolved in DMSO and diluted with a kinase buffer (50 mM HEPES, pH 7.5, 0.0015% Brij-35, 2 mM DTT), and 5 μL of a 5-fold final concentration of the compound (10% DMSO) was added to a 384-well plate. After adding 10 μL of 2.5-fold FLT3 enzyme solution, incubate for 10 minutes at room temperature, and then add 10 μL of a 2.5-fold substrate (FAM-labeled polypeptide and ATP) solution. After incubation at 28° C. for 60 minutes, the reaction was stopped by adding 25 μL of stop solution (100 mM HEPES, 0.015% Brij-35, 0.2% Coating Reagent #3, 50 mM EDTA, pH 7.5). Conversion rate data was read on a Caliper EZ Reader II (Caliper Life Sciences). The conversion rate was converted into inhibition rate data (% inhibition rate=(max−conversion rate)/(max−min)*100). Where max is the conversion of the DMSO control and min is the conversion of the enzyme-free control Curves were plotted with compound concentration and inhibition rate on the horizontal and vertical coordinates, and the curve was fitted using XLFit excel add-in version 4.3.1 software and IC50 was calculated.

In assay [3] the target is FAK (Homo sapiens, UniProt Q05397). Nature of the assay: FAK kinase activity inhibition, Latha screen analysis. The method, then: FAK protein kinase activity was determined by Latha screen analysis. The compound was dissolved in DMSO and diluted with kinase buffer (25 mM HEPES, pH 7.5, 0.01 mM Triton, 10 mM MgCl2, 0.5 mM EGTA, 0.01% BRIJ-35, 2 mM DTT), 2.5 μL was added to the 384-well plate 4 times the final concentration of the compound (4% DMSO). After adding 5 μL of 2-fold FAK enzyme solution, incubate for 10 minutes at room temperature, and then add 2.5 μL of 4 times substrate (Fluorescein-polyGT and ATP) solution. After incubating for 30 minutes at 25° C., 10 μL of the detection solution (antibody of phosphorylation site 2 nM and EDTA 10 mM) was added to terminate the reaction. The data emitted at […] and emitted at 520 nm was read from Envision, and the luminescence reading data was copied from the Envision program, and the value of the luminescence reading was converted to the percent inhibition by a formula. The conversion rate was converted into inhibition rate data (% inhibition rate=(max−conversion rate)/(max−min)*100). “min” is the control fluorescence reading for the reaction without enzyme: “max” is the fluorescence reading of the sample with DMSO added as a control. Curves were plotted with compound concentration and inhibition rate on the horizontal and vertical coordinates, and the curve was fitted using XLFit excel add-in version 4.3.1 software and IC50 was calculated.
Sequence of FAK (Q05397 whole entry, species assumed): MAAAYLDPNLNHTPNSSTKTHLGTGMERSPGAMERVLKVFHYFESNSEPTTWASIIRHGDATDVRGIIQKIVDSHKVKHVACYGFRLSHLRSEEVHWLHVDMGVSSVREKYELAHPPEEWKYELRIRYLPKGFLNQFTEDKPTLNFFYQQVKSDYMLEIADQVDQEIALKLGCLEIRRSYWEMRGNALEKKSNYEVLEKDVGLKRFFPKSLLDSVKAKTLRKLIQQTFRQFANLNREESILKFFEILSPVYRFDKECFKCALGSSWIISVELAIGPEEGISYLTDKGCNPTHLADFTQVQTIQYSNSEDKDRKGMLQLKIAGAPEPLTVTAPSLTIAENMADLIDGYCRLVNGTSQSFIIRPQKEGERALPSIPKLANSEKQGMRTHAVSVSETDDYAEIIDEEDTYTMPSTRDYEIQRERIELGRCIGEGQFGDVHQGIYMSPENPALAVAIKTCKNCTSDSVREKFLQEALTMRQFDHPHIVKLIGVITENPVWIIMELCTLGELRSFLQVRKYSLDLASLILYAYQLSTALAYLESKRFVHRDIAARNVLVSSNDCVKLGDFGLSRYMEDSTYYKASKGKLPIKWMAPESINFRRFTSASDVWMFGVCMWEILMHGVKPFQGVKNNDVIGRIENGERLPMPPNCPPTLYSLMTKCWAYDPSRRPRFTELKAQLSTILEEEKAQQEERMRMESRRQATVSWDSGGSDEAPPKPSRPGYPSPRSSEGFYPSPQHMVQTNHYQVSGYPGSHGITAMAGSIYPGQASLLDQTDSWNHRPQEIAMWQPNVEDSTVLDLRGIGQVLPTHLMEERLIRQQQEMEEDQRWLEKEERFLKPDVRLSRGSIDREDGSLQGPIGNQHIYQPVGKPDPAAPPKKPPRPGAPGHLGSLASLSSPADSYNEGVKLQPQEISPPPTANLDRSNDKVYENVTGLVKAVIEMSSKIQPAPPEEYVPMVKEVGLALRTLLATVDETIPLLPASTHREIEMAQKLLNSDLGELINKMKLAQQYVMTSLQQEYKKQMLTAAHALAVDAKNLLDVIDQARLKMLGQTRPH

Take `CCc1nc(C(N)=O)c(Nc2ccc3c(c2)OC[C@H]2CN(C4CCN(C)CC4)CCN32)nc1NC1CCOCC1` [Compound D6R]: the IC50 in assay [1] is < 10 nM; in assay [2], < 1 nM.

On to `CCc1nc(C(N)=O)c(Nc2ccc3c(c2)OC[C@@H]2CN(C)CCN32)nc1NC1CCOCC1` [Compound D1S], for which the 50% inhibitory concentration (IC50) is < 10 nM in assay [1] and < 1 nM in assay [2].

`CNC(=O)c1ccccc1Nc1cc(Nc2ccc3c(c2)OC[C@@H]2CN(C)CCN32)ncc1C(F)(F)F` [Compound E1S]: the IC50 in assay [3] was < 1 nM.

As to `CNC(=O)c1ccccc1Nc1cc(Nc2ccc3c(c2)OCC2COCCN32)ncc1C(F)(F)F` (stereo not drawn) [Compound E1], the IC50 in assay [3] was < 1 nM.

For the molecule `CNC(=O)c1ccccc1Nc1cc(Nc2ccc3c(c2)OC[C@H]2CN(C)CCN32)ncc1C(F)(F)F` [Compound E1R], in assay [3], the IC50 was < 1 nM.

In the case of `CCc1nc(C(N)=O)c(Nc2ccc3c(c2)OC[C@H]2CN(C)CCN32)nc1NC1CCOCC1` [Compound D1R], the IC50 in assay [1] was < 10 nM; in assay [2], < 1 nM.

As usually defined, the IC50 is the concentration at which inhibition is half-maximal.
